Experimental data from US20200068890A1 (Person to Whom the Inventor is Obligated to Assign, priority 2017, published 2020).
Values joined by “and” are separate entries in the source; they are usually repeats but may differ in a detail not shown here. Identical values can stand only once. Like-named read-outs stand apart in the source and are kept apart here.

How the values were obtained:
[1] = system: A. thaliana seedlings; assay: In planta seedling development and root length on GM/MS media; format: in vivo; details: for Normalised root / Root Length: individual plants 1-20
Description: Gamborg modified/Murashige Skoog (GM/MS) media and soil were prepared as according to Table 6.
A. thaliana seeds were sterilised including a 15 min wash step in 10% (v/v) commercial bleach without the addition of detergents. All plants were grown in a controlled environment room (CER) at 22±5° C. with 16 hrs: 8 hrs light: dark, 50-60% humidity under cool-white fluorescent light. Plants grown on soil were regularly watered and relocated within the CER.
Basta was employed as a positive control at a final recommended concentration of 10 μg/mL (50 μM). Negative controls included 0% (v/v) DMSO (H2O) and 1% (v/v) DMSO (vehicle). Media was poured into 100 mL plates and allowed to set before adding 20 sterilised seeds per plate. Seeds were then stratified at 4° C. for 72 hrs in a dark room prior to relocation into a CER.
The resulting growth plates were monitored daily and allowed to grow in an upright position for up to 14 days post stratification to determine the average root length using ImageJ analysis. Experiments were carried out in triplicates. Results were statistically validated using t-tests employing GraphPad Prism.

[2] = system: human kidney cells (HEK293); assay: MTT viability assay; details: for % Viability Remaining 1 / % Viability Remaining 2 / % Viability Remaining 3: 48 hrs
Description: (§1) Cells were harvested and resuspended in growth media (5-10 ml) to count. Cells were diluted to the appropriate concentration (5×10^3), and seeded into 96-well plates as follows: (a) 50 μl of cells per well, (b) 100 μl of growth media in the Blank wells, (c) 100 μl PBS in outer wells (to prevent dehydration of media from the cells). Cells were incubated overnight at 37° C. (5% CO2).
(§2) Compounds were prepared as serial dilutions in growth media. Each treatment concentration was performed in triplicate. 50 μl/well of prepared compound was added to cells.
(§3) A no treatment triplicate (100% viability) was also included by adding 50 μl of growth media to cells. Plates were returned to the incubator for 48 hrs.
(§4) MTT powder in 1×PBS was prepared at 5 mg/ml and filter sterilised. MTT was added to serum-free media to a final concentration of 1 mg/ml. 100 μl of the MTT solution (1 mg/ml) was added to each well, including 0 μM and blank wells. Plates were incubated at 37° C. in incubator for 3 hrs. Following incubation, the media was removed from wells without disrupting the purple crystals formed. 100 μl of DMSO was added to each well using a multichannel pipette. The plates were shaken on the plate shaker until all the crystals have dissolved. The absorbance was measured at 570 nm using a plate reader. The data was analysed using Microsoft Excel. For each treatment concentration the average was calculated, the blank was subtracted and the cell viability was determined as a percentage of the no treatment control (DMSO vehicle control).

[3] = system: human liver cells (HepG2); assay: MTT viability assay; details: for % viability 1 / % viability 2 / % viability 3: 48 hrs
Description: as §1, §2, §3, §4

[4] = system: T1, A. thaliana DHDPS; assay: DHDPS-DHDPR coupled assay, dose response inhibitor assay; format: biochemical, Arabidopsis thaliana
T1 construct: AtDHDPS|10|0.00008; no borders, domain or tags given

[5] = system: EMRSA-15; assay: Broth microdilution MIC; format: cell-based
Description: Assays were carried out by a broth microdilution method using a 96-well plate according to guidelines defined by the European Committee on Antimicrobial Susceptibility Testing as described here. Overnight cultures of strains were grown in tryptic soy broth (TSB) at 37° C. The overnight cultures were diluted to a concentration of 1×10^6 bacteria/ml (OD600=0.01) in TSB media. To each well on 96 well plates, 100 μl of bacterially infected media at a concentration of 1×10^6/ml and compounds at various concentrations were added. An uninfected control (i.e. no bacteria) was also included. The plates were incubated at 37° C. wrapped in parafilm for 20 hrs. The growth was assessed by measuring the absorbance at 600 nm. The minimum inhibitory concentration (MIC) was determined to be the lowest concentration of compound that inhibits visible bacterial growth.

With `COc1ccc(/C=C2\SC(=O)N(CC(=O)O)C2=O)cc1` [Compound 5, (Z)-2-(5-(4-Methoxybenzylidene)-2,4-dioxothiazolidin-3-yl)acetic Acid] the Normalised root ([1]; 15.6 μM in GM/MS media) was 82.76 and 96.69 and 73.74 and 70.27 and 71.53 and 139.9 and 115.3 and 146.5 and 77.53 and 88.03 and 73.65 and 65.55 and 78.22 and 74.81 and 104.1 and 65.25 and 3.437 and 81.45 and 65.88 and 72.75, the “Root Length” value ([1]; 15.6 μM in GM/MS media) was 2.769 cm and 3.235 cm and 2.467 cm and 2.351 cm and 2.393 cm and 4.682 cm and 3.856 cm and 4.902 cm and 2.594 cm and 2.945 cm and 2.464 cm and 2.193 cm and 2.617 cm and 2.503 cm and 3.482 cm and 2.183 cm and 0.115 cm and 2.725 cm and 2.204 cm and 2.434 cm and the Normalised root ([1]; 31.3 μM in GM/MS media) was 88.38 and 1.793 and 71.56 and 59.48 and 79.48 and 5.948. For the same compound, the “Root Length” value ([1]; 31.3 μM in GM/MS media) was 2.957 cm and 0.06 cm and 2.394 cm and 1.99 cm and 2.659 cm and 0.199 cm, the Normalised root ([1]; 62.5 μM in GM/MS media) was 7.413 and 36.02 and 1.315 and 72.21 and 57.81 and 43.67 and 43.88 and 58.91 and 47.85 and 54.64 and 35.81 and 30.88 and 2.78 and 15.18 and 44.24 and 60.59 and the “Root Length” value ([1]; 62.5 μM in GM/MS media) was 0.248 cm and 1.205 cm and 0.044 cm and 2.416 cm and 1.934 cm and 1.461 cm and 1.468 cm and 1.971 cm and 1.601 cm and 1.828 cm and 1.198 cm and 1.033 cm and 0.093 cm and 0.508 cm and 1.48 cm and 2.027 cm. For the same compound, the Normalised root ([1]; 125 μM in GM/MS media) was 17.75 and 24.42 and 18.71 and 21.94 and 21.31 and 20.59 and 21.58 and 22.78 and 6.905 and 15.15 and 6.636 and 15.69 and 16.44 (2×) and 2.062 and 14.11 and 1.016 and 19.97 and 13.33 and 0.8668, the “Root Length” value ([1]; 125 μM in GM/MS media) was 0.594 cm and 0.817 cm and 0.626 cm and 0.734 cm and 0.713 cm and 0.689 cm and 0.722 cm and 0.762 cm and 0.231 cm and 0.507 cm and 0.222 cm and 0.525 cm and 0.55 cm (2×) and 0.069 cm and 0.472 cm and 0.034 cm and 0.668 cm and 0.446 cm and 0.029 cm and the Normalised root ([1]; 250 μM in GM/MS media) was 3.019 and 3.856 and 2.63 and 2.989 (2×) and 4.693 and 3.049 and 0.3886 and 5.021 and 2.541 and 2.451 and 12.37 and 5.051 and 4.812 and 3.497 and 2.361 and 1.225 and 2.272 and 0.8668 and 0.4185. For the same compound, the “Root Length” value ([1]; 250 μM in GM/MS media) was 0.101 cm and 0.129 cm and 0.088 cm and 0.1 cm (2×) and 0.157 cm and 0.102 cm and 0.013 cm and 0.168 cm and 0.085 cm and 0.082 cm and 0.414 cm and 0.169 cm and 0.161 cm and 0.117 cm and 0.079 cm and 0.041 cm and 0.076 cm and 0.029 cm and 0.014 cm, the Normalised root ([1]; 500 μM in GM/MS media) was 0.807 and 0.9565 (3×) and 0.5978 and 2.72 and 0.4185 (2×) and 0.7472 and 0.9266 and 0.2391 and 0.3587 and 0.8668 and 1.375 and 1.315 and 3.348 and 1.853 and 0.9864 and the “Root Length” value ([1]; 500 μM in GM/MS media) was 0.027 cm and 0.032 cm (3×) and 0.02 cm and 0.091 cm and 0.014 cm (2×) and 0.025 cm and 0.031 cm and 0.008 cm and 0.012 cm and 0.029 cm and 0.046 cm and 0.044 cm and 0.112 cm and 0.062 cm and 0.033 cm. The seedling development ([1]; concentrations 125 μM and higher) was “did not develop past the point of hypocotyl formation”, the “development and growth of A. thaliana (leaves)” value ([1]; highest concentrations tested) was “lack of any chlorophyll containing leaves” and the “% Viability Remaining 1” value ([2]; HEK293, 12.5 μM) was 105%. For the same compound, the “% Viability Remaining 2” value ([2]; HEK293, 12.5 μM) was 103%, the “% Viability Remaining 3” value ([2]; HEK293, 12.5 μM) was 85.0% and the “% Viability Remaining 1” value ([2]; HEK293, 25 μM) was 105%. The “% Viability Remaining 2” value ([2]; HEK293, 25 μM) was 103%, the “% Viability Remaining 3” value ([2]; HEK293, 25 μM) was 85.0% and the “% Viability Remaining 1” value ([2]; HEK293, 50 μM) was 92.3%. For the same compound, the “% Viability Remaining 2” value ([2]; HEK293, 50 μM) was 101%, the “% Viability Remaining 3” value ([2]; HEK293, 50 μM) was 90.8% and the “% Viability Remaining 1” value ([2]; HEK293, 100 μM) was 106%. The “% Viability Remaining 2” value ([2]; HEK293, 100 μM) was 103%, the “% Viability Remaining 3” value ([2]; HEK293, 100 μM) was 82.8% and the “% Viability Remaining 1” value ([2]; HEK293, 200 μM) was 82.7%. For the same compound, the “% Viability Remaining 2” value ([2]; HEK293, 200 μM) was 86.0%, the “% Viability Remaining 3” value ([2]; HEK293, 200 μM) was 84.9% and the “% Viability Remaining 1” value ([2]; HEK293, 400 μM) was 96.4%. The “% Viability Remaining 2” value ([2]; HEK293, 400 μM) was 91.3%, the “% Viability Remaining 3” value ([2]; HEK293, 400 μM) was 89.1% and the “toxicity to HEK293 cells (in words)” value ([2]; HEK293, MTT, up to 400 μM (Defensin 100 μM)) was “effectively nontoxic”. The “% viability 1” value ([3]; HepG2, 12.5 μM) was 111%, the “% viability 2” value ([3]; HepG2, 12.5 μM) was 107% and the “% viability 3” value ([3]; HepG2, 12.5 μM) was 105%. The “% viability 1” value ([3]; HepG2, 25 μM) was 111%, the “% viability 2” value ([3]; HepG2, 25 μM) was 106% and the “% viability 3” value ([3]; HepG2, 25 μM) was 105%. For the same compound, the “% viability 1” value ([3]; HepG2, 50 μM) was 102%, the “% viability 2” value ([3]; HepG2, 50 μM) was 91.9% and the “% viability 3” value ([3]; HepG2, 50 μM) was 104%. The “% viability 1” value ([3]; HepG2, 100 μM) was 111%, the “% viability 2” value ([3]; HepG2, 100 μM) was 105% and the “% viability 3” value ([3]; HepG2, 100 μM) was 84.8%. For the same compound, the “% viability 1” value ([3]; HepG2, 200 μM) was 78.7%, the “% viability 2” value ([3]; HepG2, 200 μM) was 110% and the “% viability 3” value ([3]; HepG2, 200 μM) was 94.4%. The “% viability 1” value ([3]; HepG2, 400 μM) was 82.1%, the “% viability 2” value ([3]; HepG2, 400 μM) was 84.9% and the “% viability 3” value ([3]; HepG2, 400 μM) was 92.5%. The “toxicity to HepG2 cells (in words)” value ([3]; HepG2, MTT, up to 400 μM (Defensin 100 μM)) was “effectively nontoxic”, the IC50 [4] was 46.9 µM and the MIC ([5]; EMRSA-15, replicate 1, read-out: MIC #1) was > 64 µg/mL. For the same compound, the MIC ([5]; EMRSA-15, replicate 2, read-out: MIC #2) was > 64 µg/mL and the MIC ([5]; EMRSA-15, replicate 3, read-out: MIC #3) was > 64 µg/mL.
